Results on 21 compounds are retold here after ChEMBL document CHEMBL4251696, “Discovery of a Stress-Activated Protein Kinase Inhibitor for Lymphatic Filariasis” (ACS Med Chem Lett, 2018).

The nature of data set [1]: Inhibition of sodium arsenate activated N-terminal GST-tagged Brugia malayi MPK1 expressed in HEK293F cells using FAM-p38tide as substrate by IMAP assay.
Data set [2] has as its system Brugia malayi. The experiment in a line: Inhibition of recombinant Brugia malayi MPK1a at 1 uM using FAM-p38tide as substrate by IMAP assay relative to control.
A short description of data set [3]: Inhibition of recombinant Brugia malayi MPK1a using FAM-p38tide as substrate by IMAP assay.
For data set [4], the target named is Mitogen-activated protein kinase 14 (Homo sapiens, UniProt Q16539). The experiment in a line: Inhibition of human p38alpha using FAM-p38tide as substrate by IMAP assay.
Chain of Mitogen-activated protein kinase 14 (Q16539 whole entry): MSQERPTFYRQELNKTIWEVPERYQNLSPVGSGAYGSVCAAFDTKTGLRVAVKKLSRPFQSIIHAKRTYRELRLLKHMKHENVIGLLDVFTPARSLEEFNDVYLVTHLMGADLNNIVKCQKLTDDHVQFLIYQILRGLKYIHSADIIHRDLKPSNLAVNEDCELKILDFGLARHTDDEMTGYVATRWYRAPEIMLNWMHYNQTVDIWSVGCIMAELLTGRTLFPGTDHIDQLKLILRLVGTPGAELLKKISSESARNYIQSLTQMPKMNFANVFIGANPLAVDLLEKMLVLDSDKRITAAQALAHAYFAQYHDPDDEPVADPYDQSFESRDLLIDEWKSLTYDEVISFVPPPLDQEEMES
Data set [5] has as its system Brugia malayi. The experiment in a line: Antifilarial activity against Brugia malayi microfilaria assessed as increase in copper-induced reduction in parasite motility at 0.1 to 1 uM measured daily for 5 days. Type of data set: functional, organism-based.
Data set [6] deals with Brugia malayi. The experiment in a line: Antifilarial activity against adult Brugia malayi assessed as increase in copper-induced reduction in parasite motility at 0.1 to 1 uM measured daily for 5 days. Type of data set: functional, organism-based.
Data set [7] is described as follows: Stability in human microsomes assessed as parent compound remaining after 1 hr. The conditions noted are these: read-out: Stability. Type of data set: ADME, Microsome.
Data set [8] in a line: Stability in mouse microsomes assessed as parent compound remaining after 1 hr. It is filed as ADME, Microsome. The conditions noted are these: read-out: Stability.
In a further data set the target is CYP3A4 (Homo sapiens, UniProt P08684). Nature of the data set: Inhibition of CYP3A4 (unknown origin) at 5 uM relative to control. It is filed as ADME.
Chain of CYP3A4 (P08684 whole entry): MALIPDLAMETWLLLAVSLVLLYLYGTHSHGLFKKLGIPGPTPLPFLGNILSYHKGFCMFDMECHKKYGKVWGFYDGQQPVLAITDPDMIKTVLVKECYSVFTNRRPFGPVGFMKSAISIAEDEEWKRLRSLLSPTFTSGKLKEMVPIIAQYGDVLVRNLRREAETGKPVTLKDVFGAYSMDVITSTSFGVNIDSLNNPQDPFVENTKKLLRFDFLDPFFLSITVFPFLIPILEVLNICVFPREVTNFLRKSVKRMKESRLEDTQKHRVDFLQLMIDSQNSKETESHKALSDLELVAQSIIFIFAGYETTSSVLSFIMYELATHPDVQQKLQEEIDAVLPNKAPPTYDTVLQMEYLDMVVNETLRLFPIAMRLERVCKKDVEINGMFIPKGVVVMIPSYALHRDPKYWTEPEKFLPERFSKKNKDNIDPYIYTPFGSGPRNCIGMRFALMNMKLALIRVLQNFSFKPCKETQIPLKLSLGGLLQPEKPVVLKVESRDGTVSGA
Another data set concerns the target CYP2C9 (Homo sapiens, UniProt P11712). Nature of the data set: Inhibition of CYP2C9 (unknown origin) at 5 uM relative to control. It is filed as ADME.
Another data set has as its target CYP2D6 (Homo sapiens, UniProt P10635). The experiment in a line: Inhibition of CYP2D6 (unknown origin) at 5 uM relative to control. It is filed as ADME.
A further data set deals with CYP2C19 (Homo sapiens, UniProt P33261). The experiment in a line: Inhibition of CYP2C19 (unknown origin) at 5 uM relative to control. Type of data set: ADME.
Chain of CYP2C19 (P33261 whole entry): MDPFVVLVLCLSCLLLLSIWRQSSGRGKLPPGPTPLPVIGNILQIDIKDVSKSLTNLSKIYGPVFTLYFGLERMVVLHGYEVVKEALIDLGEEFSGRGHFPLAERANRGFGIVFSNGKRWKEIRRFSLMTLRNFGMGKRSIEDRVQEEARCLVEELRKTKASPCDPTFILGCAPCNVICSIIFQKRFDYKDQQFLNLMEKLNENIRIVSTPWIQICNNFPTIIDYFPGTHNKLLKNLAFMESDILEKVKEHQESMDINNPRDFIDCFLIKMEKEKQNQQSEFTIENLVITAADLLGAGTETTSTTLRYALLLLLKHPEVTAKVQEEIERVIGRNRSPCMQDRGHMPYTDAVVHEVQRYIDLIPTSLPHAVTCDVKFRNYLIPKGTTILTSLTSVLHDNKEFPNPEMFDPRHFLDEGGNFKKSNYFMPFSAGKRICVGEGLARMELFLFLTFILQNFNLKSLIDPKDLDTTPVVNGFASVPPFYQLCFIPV
For the next data set, the target named is T1, CYP1A2 (Homo sapiens, UniProt P05177).
T1 sequence (P05177 whole entry): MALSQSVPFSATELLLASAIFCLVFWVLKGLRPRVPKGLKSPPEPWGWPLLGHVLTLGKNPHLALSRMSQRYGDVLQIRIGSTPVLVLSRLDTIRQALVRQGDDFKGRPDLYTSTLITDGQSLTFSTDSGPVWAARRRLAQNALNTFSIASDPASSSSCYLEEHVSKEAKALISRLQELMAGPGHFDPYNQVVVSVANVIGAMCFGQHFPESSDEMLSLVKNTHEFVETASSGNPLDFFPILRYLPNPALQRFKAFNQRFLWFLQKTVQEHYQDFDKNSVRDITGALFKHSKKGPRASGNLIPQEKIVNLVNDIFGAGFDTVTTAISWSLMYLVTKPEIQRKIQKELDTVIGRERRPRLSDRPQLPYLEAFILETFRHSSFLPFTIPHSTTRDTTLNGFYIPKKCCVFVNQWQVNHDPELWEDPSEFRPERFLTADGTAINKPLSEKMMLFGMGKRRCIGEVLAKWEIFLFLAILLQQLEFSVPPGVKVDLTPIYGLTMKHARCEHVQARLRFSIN
The experiment in a line: Inhibition of CYP1A2 (unknown origin) at 5 uM relative to control. It is filed as ADME.

The nature of data set [9]: Cmax in mouse at 30 mg/kg, po. Type of data set: ADME, organism-based. Set-up: dose 30 mg/kg, route oral. As to conditions: in vivo.
Data set [10] in a line: Tmax in mouse at 30 mg/kg, po. Type of data set: ADME, organism-based. The conditions noted are these: in vivo.
Data set [11] can be described thus: AUC in mouse at 30 mg/kg, po. Type of data set: ADME, organism-based. The conditions noted are these: in vivo.
In a further data set the test system is Mus musculus. The experiment in a line: Time at which plasma concentration stays above in vitro IC50 for Brugia malayi MPK1a in mouse at 30 mg/kg, po. Type of data set: ADME, organism-based. The conditions noted are these: in vivo.
Data set [12] can be described thus: Protein binding in mouse plasma. Type of data set: ADME, cell-free. The conditions noted are these: read-out: PPB (converted).
The nature of data set [13]: Ratio of unbound Cmax in mouse at 30 mg/kg, po to IC50 for Brugia malayi MPK1a. Type of data set: ADME, organism-based. The conditions noted are these: in vivo.
Data set [14] addresses Mitogen-activated protein kinase 10 (Homo sapiens) (UniProt P53779). The experiment in a line: Inhibition of human JNK3 FAM-EGFR-derived peptide as substrate by IMAP assay.

The source made the active and inactive calls. The rule behind the calls is not given here.

Chain of Mitogen-activated protein kinase 10 (Homo sapiens) (P53779 whole entry, looked up): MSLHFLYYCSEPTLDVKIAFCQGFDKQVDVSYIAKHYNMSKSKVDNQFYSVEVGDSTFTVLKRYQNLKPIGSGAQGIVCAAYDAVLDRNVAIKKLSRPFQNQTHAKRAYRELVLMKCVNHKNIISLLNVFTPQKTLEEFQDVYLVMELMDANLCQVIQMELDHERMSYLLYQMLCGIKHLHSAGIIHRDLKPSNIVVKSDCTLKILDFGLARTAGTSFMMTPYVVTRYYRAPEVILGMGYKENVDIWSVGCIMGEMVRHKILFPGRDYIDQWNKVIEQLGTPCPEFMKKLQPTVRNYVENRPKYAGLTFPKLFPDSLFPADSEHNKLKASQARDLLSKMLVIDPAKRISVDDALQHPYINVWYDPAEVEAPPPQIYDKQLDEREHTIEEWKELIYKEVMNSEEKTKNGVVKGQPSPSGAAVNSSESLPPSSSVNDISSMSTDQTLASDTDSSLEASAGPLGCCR
Chain of CYP2D6 (P10635 whole entry): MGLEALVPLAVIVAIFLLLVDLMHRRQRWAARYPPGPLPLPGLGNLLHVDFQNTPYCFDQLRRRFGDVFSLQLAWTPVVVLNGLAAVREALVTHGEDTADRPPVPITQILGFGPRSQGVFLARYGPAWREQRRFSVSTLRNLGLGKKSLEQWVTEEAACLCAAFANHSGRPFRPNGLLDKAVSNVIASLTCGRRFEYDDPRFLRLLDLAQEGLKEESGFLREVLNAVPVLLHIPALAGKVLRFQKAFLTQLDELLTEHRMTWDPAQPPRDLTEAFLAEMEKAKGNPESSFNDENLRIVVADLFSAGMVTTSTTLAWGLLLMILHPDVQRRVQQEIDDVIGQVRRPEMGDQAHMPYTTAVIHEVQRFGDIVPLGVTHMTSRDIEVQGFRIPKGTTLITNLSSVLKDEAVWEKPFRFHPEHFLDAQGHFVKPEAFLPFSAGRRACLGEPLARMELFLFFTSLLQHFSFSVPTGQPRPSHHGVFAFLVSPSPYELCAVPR
Chain of CYP2C9 (P11712 whole entry): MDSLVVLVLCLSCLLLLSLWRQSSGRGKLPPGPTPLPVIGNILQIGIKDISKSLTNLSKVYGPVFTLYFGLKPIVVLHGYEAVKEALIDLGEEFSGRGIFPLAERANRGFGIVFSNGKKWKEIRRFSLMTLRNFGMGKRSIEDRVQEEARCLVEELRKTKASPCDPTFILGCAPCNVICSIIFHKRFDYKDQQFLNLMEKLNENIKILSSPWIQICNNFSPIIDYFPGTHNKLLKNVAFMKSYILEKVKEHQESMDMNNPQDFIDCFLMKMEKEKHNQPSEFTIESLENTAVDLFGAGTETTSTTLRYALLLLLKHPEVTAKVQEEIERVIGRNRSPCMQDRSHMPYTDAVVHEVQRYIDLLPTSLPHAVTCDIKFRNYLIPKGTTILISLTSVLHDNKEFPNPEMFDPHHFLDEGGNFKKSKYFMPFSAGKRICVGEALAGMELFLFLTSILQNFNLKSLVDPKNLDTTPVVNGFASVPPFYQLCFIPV

The term IC50 denotes the point on the concentration scale where inhibition reaches its midpoint. In data set [1], `C[S+]([O-])c1ccc(-c2nc(-c3ccc(F)cc3)c(-c3ccncc3)[nH]2)cc1` (stereo unspecified) [SB-203580] displayed an IC50 of 220 nM.
In general, inhibition refers to the drop in the measured response relative to a control, in per cent. With `Cc1onc(-c2ccccc2)c1-c1ccnc(N[C@H]2CCN(C(=O)OC(C)(C)C)C2)n1`, in the data set on Brugia malayi [2], the inhibition was 0%. For the same compound, the IC50 in data set [3] amounted to 360 nM.
For `Cc1onc(-c2ccccc2)c1-c1ccnc(N[C@@H]2CCN(S(C)(=O)=O)C2)n1`, the inhibition in the data set with Brugia malayi [2] turned out to be 70%. Further, the IC50 in data set [3] amounted to 520 nM.
Compound `Cc1ccc(-n2nc(C(C)(C)C)cc2NC(=O)Nc2ccc(OCCN3CCOCC3)c3ccccc23)cc1` [DORAMAPIMOD] yielded a 50% inhibitory concentration (IC50) in data set [1] of 140 nM.
For `Cc1onc(-c2ccccc2)c1-c1ccnc(N[C@@H]2CCNC2)n1`, in the data set with Brugia malayi [2], the inhibition worked out at 64%. In addition, the IC50 in data set [3] amounted to 700 nM.
For the compound `Cc1onc(-c2ccccc2)c1-c1ccnc(N[C@@H]2CCN(S(=O)(=O)c3ccccc3)C2)n1`, the inhibition with Brugia malayi [2] worked out at 44%.
In the case of `CC(=O)N1CC[C@@H](Nc2nccc(-c3c(-c4ccccn4)noc3C)n2)C1`, the inhibition in the data set on Brugia malayi [2] worked out at 7%.
Take `Cc1onc(-c2ccccc2)c1-c1ccnc(N[C@H]2CC[C@H](NC(=O)OC(C)(C)C)CC2)n1`: the inhibition in the data set on Brugia malayi [2] worked out at 83%. Further, the IC50 in data set [3] was found to be 200 nM.
Take `CC(=O)N1CC[C@@H](Nc2nccc(-c3c(-c4cccnc4)noc3C)n2)C1`: the inhibition with Brugia malayi [2] amounted to 3%.
One may read the Cmax as the maximum level reached in the sampled fluid or tissue. Usually Tmax stands for the time from dosing to the highest level. In general, AUC refers to concentration integrated over time. High values mean high exposure, low ones low exposure. On to `CC(=O)N[C@H]1CC[C@H](Nc2nccc(-c3c(-c4ccccc4)noc3C)n2)CC1`, for which the inhibition in the data set on Brugia malayi [2] is 93%. In addition, the IC50 in [3] came to 24 nM; in data set [4], 26 nM; in [14] it was 170 nM. The outcome with Brugia malayi [5] and in the data set with Brugia malayi [6] was Active. For the same compound, the remaining at 1 h in data set [7] and in data set [8] was 89% each time. For the same compound, the inhibition at 5 µM at CYP3A4 stood at 51%; against CYP2C9 it was 59%; against CYP2D6 it was 32%; at CYP2C19, 76%; against CYP1A2, 29%. In addition, the concentration in [9] peaked (Cmax) at 2960 nM. For the same compound, the Tmax in data set [10] amounted to 30 min. The same compound returned an AUC in data set [11] of 5.3 µM·h. In addition, the Time in the data set with Mus musculus came to 8 h. In addition, the fraction unbound in [12] is 0.08. The Ratio in [13] is given as 10.
As for `Cc1onc(-c2ccccc2)c1-c1ccnc(NCCCNC(=O)OC(C)(C)C)n1`, the inhibition in the data set with Brugia malayi [2] amounted to 45%.
As for `CC(=O)N1CC[C@@H](Nc2nccc(-c3c(-c4ccccc4)noc3C(F)(F)F)n2)C1`, in the data set on Brugia malayi [2], the inhibition was 28%.
As to `Cc1onc(-c2ccccc2)c1-c1ccnc(N[C@@H]2CCN(C(=O)c3ccccc3)C2)n1`, the inhibition in the data set on Brugia malayi [2] came to 12%.
As for `Cc1onc(-c2ccccc2)c1-c1ccnc(NC2CCCN(C(=O)OC(C)(C)C)C2)n1` (racemic), the inhibition with Brugia malayi [2] is 45%.
In the case of `Cc1onc(-c2ccccc2)c1-c1ccnc(N[C@@H]2CCN(C(=O)OC(C)(C)C)C2)n1`, in the data set with Brugia malayi [2], the inhibition came out at 78%.
Turning to `Cc1onc(-c2ccccc2)c1-c1ccnc(NCCNC(=O)OC(C)(C)C)n1`, the inhibition in the data set on Brugia malayi [2] came to 0%.
Consider `Cc1onc(-c2ccccc2)c1-c1ccnc(N[C@H]2CC[C@@H](NC(=O)OC(C)(C)C)CC2)n1`, for which the inhibition with Brugia malayi [2] came out at 90%. The IC50 in data set [3] stood at 94 nM.
In the case of `CC(=O)N1CC[C@@H](Nc2nccc(-c3c(-c4ccccc4)noc3C)n2)C1`, the inhibition in the data set with Brugia malayi [2] is 87%. Besides, the IC50 in data set [3] is 130 nM.
In the same order, the values of `CC(=O)N[C@H]1CC[C@@H](Nc2nccc(-c3c(-c4ccccc4)noc3C)n2)CC1` are 91% and 94 nM.
As for `OCCC#Cc1nc(-c2ccc(F)cc2)c(-c2ccncc2)n1CCCc1ccccc1` [RWJ-67657], in [1], half-maximal inhibition (IC50) was put at 120 nM.
In the case of `Cc1onc(-c2ccccc2)c1-c1ccnc(NC2CCN(C(=O)OC(C)(C)C)CC2)n1`, the inhibition in the data set on Brugia malayi [2] was 0%.
